Data from patent publication US20160120915A1, “METHODS FOR MANIPULATING IMMUNE RESPONSES BY ALTERING MICROBIOTA” (NEW YORK UNIVERSITY, priority 2013, published 2016).
Where a name gives a salt, the structure may show the parent alone.

What was measured:
ileal tissue = assay: TimeSTAT: expression of immunological markers in ileal tissue by qPCR; type: in vivo, C57BL/6J mice; conditions: 20 weeks of age
From the text: C57BL/6J (Jackson Labs, Bar Harbor, Me.) mice either received no antibiotics (control, females n=5, males n=5) or continuous STAT penicillin starting at birth (STATb, females n=4, males n=5), or at weaning at 4 weeks (STATw, females n=5, males n=5). Mice were weaned at 4 weeks onto normal chow (13.2% fat, 5053 PicoLab Rodent Diet 20, LabDiet, Brentwood, Mo.).
Both STATw and STATb remained on lifelong STAT after initial exposure. Mice were sacrificed at 20 weeks of age. The terminal[1 cm] ileum without Peyer's Patches [TI-] was collected for gene expression analysis by qPCR.
Total RNA was extracted from mouse tissues using the RNeasy Mini Kit (Qiagen), according to the manufacturer's instructions. Total RNA was reverse transcribed to cDNA using the Verso™ cDNA Synthesis Kit (Thermo Scientific). To generate standards for expression analysis of each target gene, the cDNA region of interest was PCR-amplified and the PCR product was cloned into pGEM-T easy (Promega). qPCR was performed with LightCycler 480 SYBR Green I Master mix (Roche) and run in a LightCycler 480 system (Roche). Target mRNA was normalized to GAPDH mRNA as an internal control in each sample.
Both STATw and STATb remained on lifelong STAT after initial exposure. Expression of immunological markers in ileal tissue was measured by qPCP at 20 weeks of age in both female and male mice.

[1] = system: intestinal microbial communities; assay: EL-PAT: 16S rRNA V4 sequencing of fecal, ileal and cecal microbiota; type: in vivo, C57BL/6 mice
Procedure: For the experiments, dams and their litters were divided into control and antibiotic groups. In the EL-PAT study dams in the antibiotic groups received Tylosin tartrate (Sigma Aldrich, St. Louis Mo.) dissolved in distilled deionized water (neutral pH) at a concentration of 0.33 mg/ml, and dams in the control group received non-acidified water. Mice in the PAT3 group received two additional doses of antibiotics at day 27 and 36 of life for 3 days. In some experiments, C57BL/6 mice were exposed to one, PAT1, (n=17, M=9, F=8) or three, PAT3, (n=19, M=10, F=9) doses of the macrolide Tylosin in non-acidified water or non-acidified water alone (control, n=12, M=9, F=3), early-in-life, to mirror pediatric antibiotic exposures. For the first antibiotic pulse […] of Tylosin tartrate (Sigma) was dissolved in 250 ml of non-acidified water and given to PAT1 and PAT3 lactating dams at pup day 5 of life for 5 days. For the second and third pulse, pups received the antibiotic directly at day 27 and day 36 of life respectively, for three days. Mice were sacrificed at 7 weeks of age and fecal, ileal and cecal contents were collected. Throughout the experiment mouse weight and fecal contents were collected. Fecal, ileal and cecal DNA were extracted using Mobio 96-well extraction kit (MO BIO Laboratories, Inc., CA). For amplicon library generation, the V4 region of 16s rRNA gene was amplified with gene specific primers (SEQ ID NOS: 39-43). Amplicons were prepared in triplicate, pooled and quantified. The 254 bp V4 region was sequenced using the Illumina MiSeq 2×150 bp platform (Illumina Inc., CA). Forward and reverse reads were joined using the ea-utils module fastq-join. Demultiplexing and operational taxonomic unit (OTU) picking were performed using the bioinformatic tool Qiime, while pair-end reads were demultiplexed with the script split_libraries_fastq.py. Reads were quality filtered at a phred score of 20 using -q flag, and the flag --rev_comp_mapping allowed reading of the reverse complement barcode before demultiplexing. Open referenced OTU picking was performed using pick_open_reference_otus.py script to assign a taxonomy for each OTU representative sequence and build a phylogenetic tree, and an OTU table. For alpha and beta diversity, samples were rarified at a sequencing depth of 1000.

terminal ileum = assay: PAT: ileal expression by qPCR in 6-week mice; type: in vivo, C57BL/6 mice; conditions: 6-week male mice, 3 pulses, vs control, p<0.05
[2] = PAT3 group, two additional doses
[3] = at sacrifice, six-weeks (PAT1) and one-week (PAT3) after last pulse
[4] = one therapeutic dose, dams and offspring

With `CC1(C)S[C@@H]2[C@H](NC(=O)COc3ccccc3)C(=O)N2[C@H]1C(=O)[O-].[K+]` [STAT, penicillin VK] the “ileal expression of Th17 transcription factor (RORγT)” value (ileal tissue; female mice, STAT from weaning or birth vs control) was “significant reductions”, the “ileal expression of J-chain” value (ileal tissue; female mice, STAT vs control) was “significant reductions” and the “ileal expression of Reg3γ” value (ileal tissue; female mice, STAT vs control) was “significant reductions”. The “ileal expression of SAA1/SAA2” value (ileal tissue; female mice, STAT vs control) was “significant reductions”, the “ileal expression of SSA3” value (ileal tissue; female mice, STAT vs control) was “significant reductions” and the “ileal expression of cytokine” value (ileal tissue; female mice, STAT vs control) was “significant reductions”. For the same compound, the “ileal expression of cytokine TH-17A” value (ileal tissue; female mice, STAT vs control) was “significant reductions”, the “ileal expression of defensin β1 (Defb1)” value (ileal tissue; female mice, STAT vs control) was “significant reductions” and the “ileal expression of polymeric Ig receptor (pIgR)” value (ileal tissue; female mice, STAT vs control) was “significant reductions”. The “ileal expression of J-chain” value (ileal tissue; male mice, STAT vs control) was “lacked differences”, the “ileal expression of RORγt” value (ileal tissue; male mice, STAT vs control) was “lacked differences” and the “ileal expression of pIgR” value (ileal tissue; male mice, STAT vs control) was “lacked differences”.

In the case of `CC[C@H]1OC(=O)C[C@@H](O)[C@H](C)[C@@H](O[C@@H]2O[C@H](C)[C@@H](O[C@H]3C[C@@](C)(O)[C@@H](O)[C@H](C)O3)[C@H](N(C)C)[C@H]2O)[C@@H](CC=O)C[C@@H](C)C(=O)/C=C/C(C)=C/[C@@H]1CO[C@@H]1O[C@H](C)[C@@H](O)[C@@H](OC)[C@H]1OC` [Tylosin, Tylosin tartrate], the “relative abundance of Blautia producta” value [1, 2] was “blooms”, the “relative abundance of family Enterobacteriaceae” value [1, 2] was “blooms” and the ileal evenness [1, 3] was “decreases”. The ileal richness [1, 3] was “decreases”, the “abundance of Bifidobacterium (ileal, LEfSe)” value ([1]; early-life PAT) was “decreases” and the “abundance of S24-7 (ileal, LEfSe)” value ([1]; early-life PAT) was “decreases”. For the same compound, the “abundance of SFB (ileal, LEfSe)” value ([1]; early-life PAT) was “decreases”, the “relative abundance of Akkermansia muciniphila (ileal, LEfSe)” value ([1]; early-life PAT) was “increases” and the “ileal microbial communities (PCoA, Jenson-Shannon divergence)” value ([1]; male and female, independent of sex) was “significantly different from Control”. The “fecal, cecal and ileal microbial diversity (phylogenetic diversity)” value ([1]; male pups over time, one or three pulses vs Control) was “decreases”, the “intestinal microbial populations (PCoA, weighted Unifrac)” value ([1]; one and three therapeutic doses early in life, males and females) was “significantly alters” and the “Segemented Filamentous Bacteria” value [1, 4] was “loss”. The “relative abundance of Bacteroides uniformis” value [1, 4] was “blooms”, the “relative abundance of Akkermansia muciniphila” value ([1]; one therapeutic dose, dams and offspring, fecal, ileal and cecal samples) was “blooms” and the “ileal Relmβ expression” value (terminal ileum) was “significantly lower”.
